Compound: C1CN(CCN1)C2=CC=C(C=C2)C3=CN4C(=C(C=N4)C5=CC=NC6=CC=CC=C56)N=C3 [DM3189] + Cc1nc(NC(=O)N2CCC[C@H]2C(N)=O)sc1-c1ccnc(C(C)(C)C(F)(F)F)c1 [Alpelisib] (partner 2 µM)
Test: relative viability (nuclei count vs DMSO), 5 days (fraction); higher = more cells survive
Outline: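 The day after seeding in 1536-well plates, lung cancer cell lines were treated by pin tool with a single drug, or with a fixed anchor-drug dose together with five library-drug doses (not always all listed) in √10 steps. After 5 days, a combined fix-and-stain solution (final 0.05% Triton X-100, 1% formaldehyde, 1 ug/ml Hoechst) was added. Nuclei counted on 4× images gave relative viability as treated counts over vehicle counts, reported as the median of duplicate plates.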

Cell Line | relative viability (first compound 0.08 µM) | relative viability (first compound 0.253 µM) | relative viability (first compound 0.8 µM) | relative viability (first compound 2.53 µM)
PC-14 | 0.983 | 0.996 | 0.768 | 1.1
NCI-H322M | 0.734 | 0.867 | 0.805 | 0.884
SK-MES-1 | 0.937 | 0.873 | 0.738 | 0.782
NCI-H1944 | 0.884 | 0.817 |  | 0.806
LK-2 | 1.05 | 0.6 | 0.445 | 0.564
RERF-LC-KJ | 0.932 | 0.829 | 0.895 | 0.937
COR-L23 | 0.749 | 0.634 | 0.645 | 0.636
NCI-H1355 | 0.884 | 0.81 | 0.678 | 0.812
NCI-H520 | 0.837 | 0.633 | 0.637 | 0.48
NCI-H2009 | 1.17 | 1.16 | 1.13 | 1.15
HCC-15 | 0.951 | 0.798 | 0.802 | 0.894
NCI-H2347 | 0.969 | 1 | 0.989 | 1.14
NCI-H1395 | 0.927 | 0.871 | 1.04 | 1.34
NCI-H1666 | 1.04 | 1.17 | 1.07 | 0.793
NCI-H3122 | 0.656 | 0.74 | 0.701 | 0.739
NCI-H2023 | 0.586 | 0.633 | 0.574 | 0.63
HCC-78 | 0.635 | 0.315 |  | 0.311
NCI-H2170 | 0.96 | 0.854 | 0.734 | 0.641
NCI-H1793 | 0.758 | 0.877 | 0.982 | 1.16
HCC-366 | 0.417 | 0.436 | 0.167 | 0.423
NCI-H1651 | 1.23 | 0.986 | 0.924 | 0.797
LC-2-ad | 0.822 | 0.76 | 0.857 | 0.71
HCC-827 | 1.1 | 0.888 | 0.847 | 1.03
SW 1573 | 0.869 | 0.59 | 0.711 | 0.774

Cell Line | relative viability (first compound 0.08 µM) | relative viability (first compound 0.253 µM) | relative viability (first compound 0.8 µM) | relative viability (first compound 2.53 µM)
ABC-1 | 0.864 | 1.07 | 1.02 | 0.925
NCI-H1703 | 0.389 | 0.366 | 0.384 | 0.285
COR-L 105 | 1.17 | 1.16 | 1.01 | 1.26
LOU-NH91 | 0.765 | 0.702 | 0.668 | 0.683
NCI-H727 | 0.638 | 0.503 |  | 0.56
LU99A | 0.468 | 0.422 |  | 0.384
UMC-11 | 0.994 | 0.998 | 0.794 | 0.749
HOP-62 | 1.29 | 1.11 | 0.773 | 0.911
NCI-H1993 |  | 0.671 | 0.641 | 0.7
LCLC-103H | 0.994 | 0.979 | 0.912 | 0.975
NCI-H1734 | 0.677 | 0.706 | 0.635 | 0.661
EKVX | 0.944 | 0.77 | 0.807 | 0.869
HARA | 0.801 | 0.766 | 0.787 | 0.958
EMC-BAC-2 | 0.684 | 0.432 | 0.718 | 0.8
PC-3 [JPC-3] | 1.08 | 1.08 | 1.02 | 1.23
NCI-H596 | 0.578 | 0.517 | 0.386 | 0.478
NCI-H1755 | 0.848 | 0.877 | 0.815 | 0.926
NCI-H2126 | 0.838 | 0.745 | 0.763 | 0.805
NCI-H2085 | 0.968 | 0.962 | 0.976 | 0.893
CAL-12T | 1.42 | 1.14 | 1.41 | 1.43
NCI-H2087 | 1.31 | 1.07 | 1.01 | 1.03
NCI-H661 | 0.817 | 0.802 | 0.674 | 0.814
LCLC-97TM1 | 0.163 | 0.239 | 0.219 | 0.185
NCI-H2228 | 0.683 | 0.79 | 0.513 | 0.211

Cell Line | relative viability (first compound 0.08 µM) | relative viability (first compound 0.253 µM) | relative viability (first compound 0.8 µM) | relative viability (first compound 2.53 µM)
201T | 1.05 | 1.02 | 1 | 1.05
NCI-H1915 | 1.09 | 0.973 | 0.898 | 1.04
BEN | 0.917 | 1 | 1.03 | 0.934
NCI-H2405 | 0.527 | 0.709 | 0.58 | 0.677
H3255 | 0.834 | 0.739 | 0.681 | 0.847
NCI-H460 | 0.507 | 0.567 | 0.44 | 0.184
NCI-H23 | 0.768 | 0.741 | 0.675 | 0.699
NCI-H1975 | 0.869 | 0.718 | 0.658 | 0.342
NCI-H650 | 1.35 | 1.07 | 0.975 | 0.915
A-427 | 1.11 | 1.04 | 1.01 | 1.09
LXF-289 | 1.03 | 1.03 | 1.01 | 1.14
NCI-H838 | 0.965 | 0.981 | 0.749 | 0.989
NCI-H1437 | 0.837 | 0.931 | 0.855 | 0.905
SK-LU-1 | 0.932 | 0.677 | 0.638 | 0.377
NCI-H1792 | 0.545 | 0.682 | 0.624 | 0.401
HCC-44 | 0.874 | 0.942 | 0.631 | 0.757
EPLC-272H | 0.876 | 1.1 | 0.916 | 0.838
IA-LM | 1.24 | 0.581 | 0.963 | 1.31
NCI-H358 | 0.851 | 0.83 | 0.779 | 0.492
NCI-H647 | 1.01 | 0.704 | 0.659 | 0.179
NCI-H441 | 0.877 | 0.595 | 0.837 | 0.467
NCI-H1563 | 0.909 | 0.896 | 0.949 | 0.839

Source: the supplement of paper PMC10307832
